Where a chain is given by its changes, count along the chain named. Read-outs that look alike come from different tables or passages of the source.
Experiments:
[1] = biological target: ALK1/ACVRL1 (Homo sapiens, UniProt P37023); test: Kinase assay (33P-ATP filter-binding), ALK1; format: biochemical
Experimental: (§1) The kinase assays were carried out briefly as follows. Substrate was prepared in Base Reaction Buffer (20 mM Hepes (pH 7.5), 10 mM MgCl2, 1 mM EGTA, 0.02% Brij35, 0.02 mg/ml BSA, 0.1 mM Na3VO4, 2 mM DTT, 1% DMSO). The indicated kinases was delivered into the substrate solution and allowed to gently mix. Next, the specific compound was delivered in DMSO into the kinase mixture by Acoustic technology (Echo550; nanoliter range), and allowed to incubate for 20 minutes at room temperature. Next, ^33P-ATP was delivered into the reaction mixture to initiate the reaction and allowed to incubate at room temperature. After 2 hours, the reactions were spotted onto P81 ion exchange paper and the kinase activity is detected by the filter-binding method.

[2] = biological target: T1, ALK2/ACVR1 (Homo sapiens, UniProt Q04771); test: Kinase assay (33P-ATP filter-binding), ALK2; format: biochemical
T1 sequence (Q04771 21-509): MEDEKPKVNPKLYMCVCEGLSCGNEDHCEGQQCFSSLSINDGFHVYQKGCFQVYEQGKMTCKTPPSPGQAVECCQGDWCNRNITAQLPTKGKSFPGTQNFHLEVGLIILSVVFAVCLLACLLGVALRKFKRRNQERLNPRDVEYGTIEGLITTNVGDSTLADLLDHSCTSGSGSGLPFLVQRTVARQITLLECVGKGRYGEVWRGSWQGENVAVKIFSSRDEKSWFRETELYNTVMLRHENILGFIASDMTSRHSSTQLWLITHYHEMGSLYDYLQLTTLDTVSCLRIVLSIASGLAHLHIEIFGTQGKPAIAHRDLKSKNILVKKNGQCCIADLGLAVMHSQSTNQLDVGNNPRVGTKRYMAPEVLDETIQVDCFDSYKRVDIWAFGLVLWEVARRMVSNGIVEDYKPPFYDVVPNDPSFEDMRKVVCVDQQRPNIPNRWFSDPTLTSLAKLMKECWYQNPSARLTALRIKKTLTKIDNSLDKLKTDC
Experimental: as §1

[3] = biological target: T2, ALK2 (Q207D) (Homo sapiens, UniProt Q04771, Q207D); test: Kinase assay (33P-ATP filter-binding), ALK2 Q207D; format: biochemical; settings: Q207D mutant, 20 mM; read-out: Kinase Selectivity ALK2 (Q207D, 20 mM)
T2 sequence (Q04771 21-509 Q207D): T1 sequence (Q04771 21-509) with Q187D
Experimental: as §1

[4] = biological target: T3, ALK2 (R206H) (Homo sapiens, UniProt Q04771, R206H); test: Kinase assay (33P-ATP filter-binding), ALK2 R206H; format: biochemical; settings: R206H mutant, 20 mM; read-out: Kinase Selectivity ALK2 (R206H, 20 mM)
T3 sequence (Q04771 21-509 R206H): T1 sequence (Q04771 21-509) with R186H
Experimental: as §1

[5] = biological target: ALK3/BMPR1A (Homo sapiens, UniProt P36894); test: Kinase assay (33P-ATP filter-binding), ALK3; format: biochemical
Sequence of ALK3/BMPR1A (P36894 24-532): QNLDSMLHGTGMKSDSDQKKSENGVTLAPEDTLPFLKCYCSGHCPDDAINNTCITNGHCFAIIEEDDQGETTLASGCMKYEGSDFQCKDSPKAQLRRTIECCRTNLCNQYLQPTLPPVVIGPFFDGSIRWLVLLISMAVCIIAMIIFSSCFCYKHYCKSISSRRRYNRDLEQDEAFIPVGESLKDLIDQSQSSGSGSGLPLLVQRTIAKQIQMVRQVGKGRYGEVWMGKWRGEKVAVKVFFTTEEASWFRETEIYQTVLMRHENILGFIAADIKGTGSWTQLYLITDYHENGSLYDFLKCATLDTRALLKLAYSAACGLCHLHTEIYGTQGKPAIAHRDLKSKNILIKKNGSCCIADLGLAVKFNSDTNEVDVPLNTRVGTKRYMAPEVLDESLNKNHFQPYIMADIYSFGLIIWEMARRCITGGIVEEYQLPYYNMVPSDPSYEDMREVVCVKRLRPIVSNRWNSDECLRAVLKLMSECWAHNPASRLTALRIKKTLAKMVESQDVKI
Experimental: as §1

[6] = Intrinsic clearance, human; format: in vitro ADME; settings: human
[7] = Intrinsic clearance, mouse; format: in vitro ADME; settings: mouse
[8] = Protein binding, human; format: in vitro ADME
[9] = Protein binding, mouse; format: in vitro ADME
[10] = read-out: Kinase Selectivity ALK1/ACVRL1
[11] = 20 mM, read-out: Kinase Selectivity ALK2/ACVR1 (20 mM)
[12] = 1 mM, read-out: Kinase Selectivity ALK3/BMPR1A (1 mM)
[13] = CL-Hep, value in parentheses, read-out: Intrinsic Clearance Human (CL-Hep)
[14] = read-out: Intrinsic Clearance Human
[15] = CL-Hep, value in parentheses, read-out: Intrinsic Clearance Mouse (CL-Hep)
[16] = read-out: Intrinsic Clearance Mouse

Sequence of ALK1/ACVRL1 (P37023 22-503): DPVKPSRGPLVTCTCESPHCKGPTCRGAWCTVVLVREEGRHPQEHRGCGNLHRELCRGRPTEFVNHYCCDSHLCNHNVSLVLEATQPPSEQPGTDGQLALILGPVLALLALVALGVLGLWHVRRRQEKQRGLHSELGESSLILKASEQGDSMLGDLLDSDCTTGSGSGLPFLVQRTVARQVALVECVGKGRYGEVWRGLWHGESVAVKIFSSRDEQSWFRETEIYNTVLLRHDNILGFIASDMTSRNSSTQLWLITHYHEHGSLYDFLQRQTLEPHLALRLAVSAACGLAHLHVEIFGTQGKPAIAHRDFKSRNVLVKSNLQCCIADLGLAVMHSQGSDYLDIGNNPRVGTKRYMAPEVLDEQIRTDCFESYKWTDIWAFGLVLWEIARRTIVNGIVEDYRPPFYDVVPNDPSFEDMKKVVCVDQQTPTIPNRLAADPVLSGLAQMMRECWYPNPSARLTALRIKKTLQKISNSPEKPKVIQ

Row | SMILES | IC50 [1, 10] [nM] | IC50 [2, 11] [nM] | IC50 [3] [nM] | IC50 [4] [nM] | IC50 [5, 12] [nM] | CLint scaled [6, 13] [mL/min/kg] | CLint scaled [6, 14] [mL/min/kg] | CLint scaled [7, 15] [mL/min/kg] | CLint scaled [7, 16] [mL/min/kg] | Protein Binding (% Free) Human [8] [% Free] | Protein Binding (% Free) Mouse [9] [% Free] | IC50 ([1]; Kinase Selectivity ALK1/ACVRL1) [nM] | IC50 [2] [nM] | IC50 [5] [nM]
1 | Cc1cc(-c2cnc3cc(N4CC5(CCNCC5)C4)ccn23)c2cc(F)cc(F)c2n1 [Compound 24] | 1250 | 57.8 | 129 | 58.3 | 5.2 | 14 | 46.3 | < 32.9 | < 49.5 | 0.75 | 1.08 | – | – | –
2 | Cc1cc(-c2cnc3cc(-c4ccc(N5CCC6(CCCNC6)CC5)cc4)ccn23)c2cc(F)cc(F)c2n1 [Compound 3] | 10300 | 1090 | 999 | 1120 | 332 | – | – | – | – | – | – | – | – | –
3 | Cc1cc(-c2cnc3cc(-c4ccc(N5CCC6(CCNC6)CC5)cc4)ccn23)c2cc(F)cc(F)c2n1 [Compound 7] | 5950 | 770 | 745 | 1070 | 434 | – | – | – | – | – | – | – | – | –
4 | Cc1cc(-c2cnc3cc(-c4ccc(C5COC(C)CN5)cc4)ccn23)c2cc(F)ccc2n1 (centres unmarked) [Compound 15] | 34.1 | < 5.1 | < 5.1 | < 5.1 | < 5.1 | 15.7 | 74 | 38.1 | 66.3 | 1.26 | 1.01 | – | – | –
5 | c1ncc2scc(-c3cnc4cc(-c5ccc(C6CNCCN6)cc5)ccn34)c2n1 (centres unmarked) [Compound 35] | 14200 | 157 | 65.8 | 214 | 9450 | – | – | – | – | – | – | – | – | –
6 | Cc1cc(-c2cnc3cc(-c4ccc(N5CCC6(CCC6)CC5)cc4)ccn23)c2cc(F)cc(F)c2n1 [Compound 9] | > 50000 | > 50000 | > 50000 | > 50000 | 40900 | – | – | – | – | – | – | – | – | –
7 | O=S(=O)(F)Oc1ccc(-c2cnc3cc(-c4ccc(N5CCOCC5)cc4)ccn23)c2ccccc12 [Compound 38] | – | – | 10300 | 15000 | – | – | – | – | – | – | – | > 30000 | > 30000 | 23100
8 | Cc1cc(-c2cnc3cc(-c4ccc(C5COCCCN5)cc4)ccn23)c2cc(F)ccc2n1 (centres unmarked) [Compound 10] | < 5.1 | < 5.1 | < 5.1 | < 5.1 | < 5.1 | 17.4 | 139 | 47.6 | 101 | 2.39 | 1.91 | – | – | –
9 | Cc1cc(-c2cnc3cc(-c4ccc(N5CCNC(C)(C)C5)cc4)ccn23)c2cc(F)cc(F)c2n1 [Compound 26] | 330 | 14.9 | 69.7 | 79.3 | 5.7 | < 10.7 | < 23.1 | 47.1 | 99 | 0.61 | 1.03 | – | – | –
10 | c1cc(-c2cnc3cc(-c4ccc(C5CNCCN5)cc4)ccn23)ccn1 (centres unmarked) [Compound 30] | 447 | 68.8 | 35 | 96.7 | 55.1 | – | – | – | – | – | – | – | – | –
